Assay in all cases: relative viability (nuclei count vs DMSO), 5 days (fraction); higher = more cells survive
Compound in experiment [1]: CC1(C)CCC(CN2CCN(c3ccc(C(=O)NS(=O)(=O)c4ccc(NCC5CCOCC5)c([N+](=O)[O-])c4)c(Oc4cnc5[nH]ccc5c4)c3)CC2)=C(c2ccc(Cl)cc2)C1 [Venetoclax] + CC(=O)Nc1cccc(-n2c(=O)n(C3CC3)c(=O)c3c(Nc4ccc(I)cc4F)n(C)c(=O)c(C)c32)c1 [Trametinib] (partner 0.02 µM)
In outline:
(§1)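 Cells from lung cancer lines were seeded into 1536-well plates and, one day later, dosed by pin tool. Treatments were either a single drug or a fixed dose of an anchor drug with five library-drug doses (not always all listed) in √10 steps. After 5 days, nuclei were stained in a one-step fixation (final 0.05% Triton X-100, 1% formaldehyde, 1 ug/ml Hoechst) and counted on 4× images, and relative viability is the treated-to-vehicle nuclei ratio, as the median of duplicate plates.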

Compound in experiment [2]: Cn1cnc2c(F)c(Nc3ccc(Br)cc3Cl)c(C(=O)NOCCO)cc21 [Selumetinib] + Cc1nc(NC(=O)N2CCC[C@H]2C(N)=O)sc1-c1ccnc(C(C)(C)C(F)(F)F)c1 [Alpelisib] (partner 2 µM)
In a few lines:
as §1

Compound in experiment [3]: CC1(C)CCC(CN2CCN(c3ccc(C(=O)NS(=O)(=O)c4ccc(NCC5CCOCC5)c([N+](=O)[O-])c4)c(Oc4cnc5[nH]ccc5c4)c3)CC2)=C(c2ccc(Cl)cc2)C1 [Venetoclax] + Nc1ncn([C@H]2C[C@H](O)[C@@H](CO)O2)c(=O)n1 [Decitabine] (partner 2 µM)
In a few lines: as §1

Compound in experiment [4]: Cn1cnc2c(F)c(Nc3ccc(Br)cc3Cl)c(C(=O)NOCCO)cc21 [Selumetinib] + C[C@@H](Oc1cc(-c2cnn(C3CCNCC3)c2)cnc1N)c1c(Cl)ccc(F)c1Cl [Crizotinib] (partner 1 µM)
In a few lines: as §1

Take UMC-11: the relative viability in experiment [1] (first compound 0.01 µM) was determined as 0.674; in experiment [1] (first compound 0.03162 µM), 0.74; in experiment [1] (first compound 0.1 µM) it was 0.713; in experiment [1] (first compound 0.3162 µM), 0.664; in experiment [1] (first compound 1 µM), 0.749; in experiment [2] (first compound 0.02 µM), 0.97. Moreover, the relative viability in experiment [2] (first compound 0.06325 µM) is 1.1; in experiment [2] (first compound 0.2 µM), 1.01; in experiment [2] (first compound 0.6325 µM), 0.986; in experiment [3] (first compound 0.01 µM) it was 0.705; in experiment [3] (first compound 0.03162 µM), 0.595; in experiment [3] (first compound 0.1 µM), 0.48. Besides, the relative viability was 0.686 in experiment [3] (first compound 0.3162 µM); 0.608 in experiment [3] (first compound 1 µM); 0.686 in experiment [4] (first compound 0.02 µM); 0.594 in experiment [4] (first compound 0.06325 µM); 0.515 in experiment [4] (first compound 0.2 µM); 0.645 in experiment [4] (first compound 0.6325 µM).

The values are drawn from the supplement of paper PMC10307832.
